Legend:
HBV = HBV inhibitory activity: HBV DNA in the culture medium of HepG2.2.15 cells by q-PCR; assay type: cell-based; details: Hepatitis B virus, HepG2.2.15, 144 h, HepG2.2.15 cells, 6 days of compound treatment, HBV DNA in culture medium by q-PCR, highest concentration 10 μM; read-out: EC50
Protocol: (§1) HBV replication inhibition by the compounds of this invention as well as cytotoxicity determination was determined in cells infected or transfected with HBV, or cells with stably integrated HBV, such as HepG2.2.15 cells (Sells et al. 1987). The method used herein is as follows.
(§2) The HepG2.2.15 cells were seeded into 96-well plate in 2% FBS (Fetal bovine serum) culture medium at the density of 40,000 cells/well and 5,000 cells/well for HBV inhibitory activity and cytotoxicity determination, respectively. After seeding, the cell plates were incubated at 37° C., 5% CO2 overnight. The next day, medium containing compounds were added to treat the cells for 6 days with medium refreshed once in the middle of the treatment. Eight dose points with 3 folds dilution of each compound were adopted and the highest concentration of the compounds was 10 μM and 100 μM for HBV inhibitory activity and cytotoxicity determination, respectively.
The HBV DAN change in the cell culture medium induced by the compounds was measured by q-PCR (quantitative polymerase chain reaction) method. The HBV DNA in the culture medium was extracted using QIAamp 96 DNA Blood Kit according to the manual and then quantified by q-PCR using the primers and probe in the table below: […]
(§3) EC50 and CC50 values are calculated by the GraphPad Prism software and are averages where multiple measurements were made. EC50 values for the other exemplified compounds were either not measured or higher than 1 μM.

[1] = Cytotoxicity determination in HepG2.2.15 cells (CCK-8); assay type: cell-based; details: human, 6 days of compound treatment, CCK-8, highest concentration 100 μM
Protocol: as §1, §2
After 6 days of compounds treatment, 20 μl CCK-8 (Cell Counting Kit-8 (Tianjin Biolite company)) reagents were added to each well of cytotoxicity assay plates, the plate was incubated at 37° C., 5% CO2 for 2.5 hours and the absorbance at 450 nm wavelength was measured, at the same time the absorbance at 630 nm wavelength was read as reference.
as §3

**Q.** With `CCOC(=O)C1=C([C@@H]2C[C@H](NC(C)=O)CO2)NC(c2nccs2)=NC1c1cccc(F)c1Cl` (relative stereo) [Compound 262, (cis)-Ethyl 6-(4-acetamidotetrahydrofuran-2-yl)-4-(2-chloro-3-fluorophenyl)-2-(thiazol-2-yl)-1,4-dihydropyrimidine-5-carboxylate] as the compound, how does the EC50 (HBV) read?
**A.** 400 nM

**Q.** What about the CC50 at 6 days [1] of the same compound?
**A.** 75800 nM

**Q.** What does the source list for `COC(=O)C1=C(C2CCN(S(=O)(=O)[C@H]3C[C@H](C(=O)O)C3)CC2)NC(c2nccs2)=NC1c1ccc(F)cc1Cl` (relative stereo) [Compound 285A, trans-3-((4-(6-(2-Chloro-4-fluorophenyl)-5-(methoxycarbonyl)-2-(thiazol-2-yl)-3,6-dihydropyrimidin-4-yl)piperidin-1-yl)sulfonyl)cyclobutane-carboxylic Acid]?
**A.** EC50 (HBV): 24 nM; CC50 at 6 days [1]: 67200 nM

**Q.** With `COC(=O)C1=C([C@H]2CC[C@H](C(=O)O)CC2)NC(c2nccs2)=NC1c1ccc(F)c(F)c1Cl` (relative stereo) [Compound 289A, (trans)-4-(6-(2-chloro-3,4-difluorophenyl)-5-(methoxycarbonyl)-2-(thiazol-2-yl)-3,6-dihydropyrimidin-4-yl)cyclohexanecarboxylic Acid] as the compound, how does the EC50 (HBV) read?
**A.** 15 nM

**Q.** And the CC50 at 6 days [1]?
**A.** 24200 nM

**Q.** Which results are given for `CCOC(=O)C1=C([C@@H]2CCC[C@H](C(=O)O)CC2)NC(c2nccs2)=NC1c1ccc(F)c(F)c1Cl` (relative stereo) [Compound 302C, (cis)-4-(−6-(2-Chloro-3,4-difluorophenyl)-5-(ethoxycarbonyl)-2-(thiazol-2-yl)-3,6-dihydropyrimidin-4-yl)cycloheptanecarboxylic Acid]?
**A.** EC50 (HBV): 50 nM; CC50 at 6 days [1]: 10200 nM

**Q.** What does the source list for `COC(=O)C1=C(C2CCN(S(=O)(=O)[C@H]3CC[C@H](C(=O)O)C3)CC2)NC(c2nccs2)=NC1c1ccc(F)cc1Cl` (relative stereo) [Compound 311A, (trans)-3-((4-(6-(2-Chloro-4-fluorophenyl)-5-(methoxycarbonyl)-2-(thiazol-2-yl)-3,6-dihydropyrimidin-4-yl)piperidin-1-yl)sulfonyl)-cyclopentanecarboxylic Acid]?
**A.** EC50 (HBV): 89 nM; CC50 at 6 days [1]: > 100000 nM

**Q.** With `COC(=O)C1=C(C2CCN(S(=O)(=O)[C@@H]3CC[C@H](C(=O)O)C3)CC2)NC(c2nccs2)=NC1c1ccc(F)cc1Cl` (relative stereo) [Compound 311B, (cis)-3-((4-(6-(2-Chloro-4-fluorophenyl)-5-(methoxycarbonyl)-2-(thiazol-2-yl)-3,6-dihydropyrimidin-4-yl)piperidin-1-yl)sulfonyl)-cyclopentanecarboxylic Acid] as the compound, how does the EC50 (HBV) read?
**A.** 97 nM

**Q.** And the CC50 at 6 days [1]?
**A.** > 100000 nM

**Q.** Which EC50 (HBV) does the source give for `COC(=O)C1=C(C2CCN(S(=O)(=O)[C@H]3CC[C@@H](C(=O)O)CC3)CC2)NC(c2nccs2)=NC1c1ccc(F)cc1Cl` (relative stereo) [Compound 313A, (cis)-4-((4-(6-(2-Chloro-4-fluorophenyl)-5-(methoxycarbonyl)-2-(thiazol-2-yl)-3,6-dihydropyrimidin-4-yl)piperidin-1-yl)sulfonyl)-cyclohexanecarboxylic Acid] here?
**A.** 58 nM

**Q.** What about the CC50 at 6 days [1] of the same compound?
**A.** 35000 nM

**Q.** Which results are given for `COC(=O)C1=C(C2CCN(S(=O)(=O)[C@H]3CC[C@H](C(=O)O)CC3)CC2)NC(c2nccs2)=NC1c1ccc(F)cc1Cl` (relative stereo) [Compound 313B, (trans)-4-((4-(6-(2-Chloro-4-fluorophenyl)-5-(methoxycarbonyl)-2-(thiazol-2-yl)-3,6-dihydropyrimidin-4-yl)piperidin-1-yl)sulfonyl)-cyclohexanecarboxylic Acid]?
**A.** EC50 (HBV): 11 nM; CC50 at 6 days [1]: 34600 nM

**Q.** Which results are given for `CCOC(=O)C1=C(C2CCN(S(=O)(=O)[C@H]3C[C@H](C(=O)O)C3)CC2)NC(c2nccs2)=NC1c1cccc(F)c1Br` (relative stereo) [Compound 339B, (trans)-3-((4-(6-(2-Bromo-3-fluorophenyl)-5-(ethoxycarbonyl)-2-(thiazol-2-yl)-3,6-dihydropyrimidin-4-yl)piperidin-1-yl)sulfonyl)cyclobutanecarboxylic Acid]?
**A.** EC50 (HBV): 10 nM; CC50 at 6 days [1]: 13400 nM

**Q.** What does the source list for `CCOC(=O)C1=C(C2CCN(S(=O)(=O)[C@H]3C[C@@H](C(=O)O)C3)CC2)NC(c2nccs2)=NC1c1cccc(F)c1Br` (relative stereo) [Compound 339D, (cis)-3-((4-(6-(2-Bromo-3-fluorophenyl)-5-(ethoxycarbonyl)-2-(thiazol-2-yl)-3,6-dihydropyrimidin-4-yl)piperidin-1-yl)sulfonyl)cyclobutanecarboxylic Acid]?
**A.** EC50 (HBV): 99 nM; CC50 at 6 days [1]: 32700 nM

**Q.** What does the source list for `CCOC(=O)C1=C(C2CCN(S(=O)(=O)[C@H]3C[C@@H](C(=O)O)C3)CC2)NC(c2nccs2)=NC1c1ccc(F)c(F)c1C` (relative stereo) [Compound 343D, (cis)-3-((4-(6-(3,4-difluoro-2-methylphenyl)-5-(ethoxycarbonyl)-2-(thiazol-2-yl)-3,6-dihydropyrimidin-4-yl)piperidin-1-yl)sulfonyl)cyclobutane-carboxylic Acid]?
**A.** EC50 (HBV): 53 nM; CC50 at 6 days [1]: 24000 nM

**Q.** With `CCOC(=O)C1=C(C2CCN(S(=O)(=O)[C@H]3CC[C@@H](C(=O)O)CC3)CC2)NC(c2nccs2)=NC1c1ccc(F)c(F)c1Cl` (relative stereo) [Compound 354B, (cis)-4-((4-(6-(2-Chloro-3,4-difluorophenyl)-5-(ethoxycarbonyl)-2-(thiazol-2-yl)-3,6-dihydropyrimidin-4-yl)piperidin-1-yl)sulfonyl)cyclohexane-carboxylic Acid] as the compound, how does the EC50 (HBV) read?
**A.** 18 nM

**Q.** What about the CC50 at 6 days [1] of the same compound?
**A.** 7000 nM

**Q.** Which EC50 (HBV) does the source give for `CCOC(=O)C1=C(C2CCN(S(=O)(=O)[C@H]3CC[C@H](C(=O)O)CC3)CC2)NC(c2nccs2)=NC1c1ccc(F)c(F)c1Cl` (relative stereo) [Compound 354C, (trans)-4-((4-(6-(2-Chloro-3,4-difluorophenyl)-5-(ethoxycarbonyl)-2-(thiazol-2-yl)-3,6-dihydropyrimidin-4-yl)piperidin-1-yl)sulfonyl)cyclohexane-carboxylic Acid] here?
**A.** 15 nM

**Q.** And the CC50 at 6 days [1]?
**A.** 7900 nM

**Q.** Which results are given for `COC(=O)C1=C(C2CCN(S(=O)(=O)[C@H]3C[C@@H](CO)C3)CC2)NC(c2nccs2)=NC1c1ccc(F)cc1Cl` (relative stereo) [Compound 357B, (cis)-Methyl 4-(2-chloro-4-fluorophenyl)-6-(1-((3-(hydroxymethyl)cyclobutyl)sulfonyl)piperidin-4-yl)-2-(thiazol-2-yl)-1,4-dihydropyrimidine-5-carboxylate]?
**A.** EC50 (HBV): 36 nM; CC50 at 6 days [1]: 15400 nM

**Q.** With `COC(=O)C1=C(C2CCN(S(=O)(=O)[C@H]3C[C@H](C(=O)O)C3)C2)NC(c2nccs2)=NC1c1ccc(F)cc1Cl` (relative stereo) [Compound 367A, (trans)-3-((3-(6-(2-chloro-4-fluorophenyl)-5-(methoxycarbonyl)-2-(thiazol-2-yl)-3,6-dihydropyrimidin-4-yl)pyrrolidin-1-yl)sulfonyl)cyclobutanecarboxylic Acid] as the compound, how does the EC50 (HBV) read?
**A.** 303 nM

**Q.** And the CC50 at 6 days [1]?
**A.** 33400 nM

**Q.** For `COC(=O)C1=C(C2CCN(S(=O)(=O)[C@H]3C[C@@H](C(=O)O)C3)C2)NC(c2nccs2)=NC1c1ccc(F)cc1Cl` (relative stereo) [Compound 367B, (cis)-3-((3-(6-(2-chloro-4-fluorophenyl)-5-(methoxycarbonyl)-2-(thiazol-2-yl)-3,6-dihydropyrimidin-4-yl)pyrrolidin-1-yl)sulfonyl)cyclobutanecarboxylic Acid], which EC50 (HBV) is on record?
**A.** 800 nM

**Q.** And the CC50 at 6 days [1]?
**A.** > 100000 nM

**Q.** What does the source list for `CCOC(=O)C1=C(C2CCN(S(=O)(=O)[C@H]3C[C@H](C(=O)O)C3)CC2)NC(c2nccs2)=NC1c1ccc(F)c(F)c1Cl` (relative stereo) [Compound 370B, (trans)-3-((4-(6-(2-Chloro-3,4-difluorophenyl)-5-(ethoxycarbonyl)-2-(thiazol-2-yl)-3,6-dihydropyrimidin-4-yl)piperidin-1-yl)sulfonyl)cyclobutanecarboxylic Acid]?
**A.** EC50 (HBV): 4 nM; CC50 at 6 days [1]: 23200 nM

**Q.** Which EC50 (HBV) does the source give for `CCOC(=O)C1=C(C2CCN(S(=O)(=O)[C@H]3C[C@@H](C(=O)O)C3)CC2)NC(c2nccs2)=NC1c1ccc(F)c(F)c1Cl` (relative stereo) [Compound 370D, (cis)-3-((4-(6-(2-Chloro-3,4-difluorophenyl)-5-(ethoxycarbonyl)-2-(thiazol-2-yl)-3,6-dihydropyrimidin-4-yl)piperidin-1-yl)sulfonyl)cyclobutanecarboxylic Acid] here?
**A.** 40 nM

**Q.** And the CC50 at 6 days [1]?
**A.** 26300 nM

**Q.** With `CCOC(=O)C1=C([C@@H]2CCN(S(C)(=O)=O)[C@@H](CF)C2)NC(c2nccs2)=NC1c1ccc(F)cc1Cl` (relative stereo) [Compound 404N, ethyl 4-(2-chloro-4-fluorophenyl)-6-((trans)-2-(fluoromethyl)-1-(methylsulfonyl)piperidin-4-yl)-2-(thiazol-2-yl)-1,4-dihydropyrimidine-5-carboxylate] as the compound, how does the EC50 (HBV) read?
**A.** 155 nM

**Q.** What about the CC50 at 6 days [1] of the same compound?
**A.** 17700 nM

From US11639350B2, “Heteroaryldihydropyrimidine derivatives and methods of treating hepatitis B infections” (Janssen Pharmaceutica NV, priority 2018, dated 2023)
